≈ marks a conversion by molar mass, not a printed value. Like-named read-outs stand apart in the source and are kept apart here.
Experiments:
L-1210 cells = test: Growth inhibitory effect on cultured L-1210 cells; format: cell-based; settings: Mus musculus, L1210, 48 hours, 37° C., read-out: concentration at which 50% of the original cells were inhibited from growth
Description: (§1) A study was conducted on the growth inhibitory effect of spermidine on cultures of IMC cancer cells and L-1210 cells. IMC cancer cells were cultured in an RPMI 1640 medium containing 10% bovine fetus serum and 2-mercaptoethanol, and L-1210 cells in an MEM medium containing 10% calf serum, for 48 hours at 37° C. in 5% carbon dioxide. The number of cultured cells was counted with a Coulter counter to evaluate the degree of cell proliferation. Spermidine was added at the start of incubation.

[1] = test system: interleukine-2 production (Thymocytes); test: Interleukine-2 production by spleen cells, activity of promoting the division of thymocytes; format: cell-based, CDF1 mice; settings: for activity at 0.001 µg/mL / activity at 0.01 µg/mL / activity at 0.1 µg/mL / activity at 1 µg/mL: Mus musculus, Thymocyte, 24 h, control = 100, read-out: ^3 H-thymidine incorporation, Thymocytes; for activity at 0.001 µg/mL: 0.001 μg/ml; for activity at 0.01 µg/mL: 0.01 μg/ml; for activity at 0.1 µg/mL: 0.1 μg/ml; for activity at 1 µg/mL: 1 μg/ml
Description: (§2) The effect of spermidine on the production of interleukine was investigated in accordance with the method of Larsson et al. (Larsson, E-L: Mechanism of T cell activation II. Antigen- and lectin-dependent acquisition of responsiveness to TCGF is a nonmitogenic, active response of resting T cells. J. Immunol. 126, 1323-1326, 1981).
(§3) Spermidine in a varying concentration was added to 1×10^7 spleen cells/ml of CDF1 mice. In the presence or absence of added concanavalin A (2 μg/ml), the stimulant of interleukine-2 production, the cells were then cultured in a cell incubator kept at 37° C. and at a carbon dioxide concentration of 5% for 24 hours. After completion of the incubation, α-methylmannoside was added to the supernatant to inactivate concanavalin A. The supernatant was collected to examine its interleukine-2 activity. The interleukine-2 activity was determined by the activity of promoting the proliferation of T blast cells and the activity of promoting the division of thymocytes. The latter two activities were determined by measuring ^3 H-thymidine incorporations to both types of cells.

[2] = test system: suppressor cells against DTH; test: Inhibition of the elevation of suppressor cells against DTH (spleen cell transfer), sole swelling; format: in vivo, CDF1 mice; settings: transferred suppressor cells; for % suppression: untreated suppressor cells 53
Description: (§4) The pharmacological effects of spermidine will be illustrated by reference to the following experimental examples, in which spermidine was administered as its phosphate dissolved in physiological saline.
Experiments were conducted to transfer suppressor cells, in accordance with the method of Yamaguchi et al. (Yamaguchi, K. and Kishimoto, S.: Distinction between suppressors of the delayed-type hypersensitivity and the humoral response to sheep erythrocytes. Immunology. 35, 721-731, 1978). CDF1 mice (8 weeks old, female) were intravenously administered with 10^8 sheep erythrocytes, the amount enough to induce the elevation of suppressor cells against DTH. The objective was to promote the production of suppressor cells. Two days later, supermidine was intraperitoneally injected once daily, and this treatment was continued for 3 days. Five days later, spleen cells were collected from the mice, and 4.5×10^7 cells of them were transferred to normal syngenic mice by i.v. injection. Simultaneously, 10^5 sheep erythrocytes, the amount enough to obtain the optimal reaction, was i.v. injected for immunization.
Four days later, 10^8 sheep erythrocytes were subcutaneously injected to the soles of the mice to induce the reaction. Twenty-four hours later, swellings on the soles were measured to evaluate the efficacy of spermidine.

mouse leukemia L-1210 = test: Survival of CDF1 mice transplanted with mouse leukemia L-1210; format: in vivo; settings: for Increase of life span: control = 100, mice surviving 60 days excluded
Description: as §4
(b) 1×10^2 mouse leukemia L-1210 cells were transplanted into CDF1 mice by subcutaneous injection (Day 0). From Day 1 onwards, 0.5 to 5 mg/kg of spermidine was administered in total of 10 times, once daily on alternative days, to investigate on the number of days the mice survived.

IMC ascites tumor = test: Concomitant treatment with bleomycin and spermidine on IMC ascites tumor, survival; format: in vivo, CDF1 mice
Description: as §4
(c) 1×10^6 IMC cancer cells were transplanted into CDF1 mice by intraperitoneal injection (Day 0). Bleomycin (5 mg/kg) was administered once daily for 5 consecutive days, and spermidine (5 mg/kg) was administered a total of 10 times on alternative days. The effect of concomitant treatment with spermidine and the anticancer drug was evaluated by considering the number of days that the mice survived.

[3] = test system: interleukine-2 production (T blast cells); test: Interleukine-2 production by spleen cells, activity of promoting the proliferation of T blast cells; format: cell-based, CDF1 mice; settings: for activity at 0.001 µg/mL / activity at 0.01 µg/mL / activity at 0.1 µg/mL / activity at 1 µg/mL: Mus musculus, 24 h, control = 100, read-out: ^3 H-thymidine incorporation, T blast cells; for activity at 0.001 µg/mL: 0.001 μg/ml; for activity at 0.01 µg/mL: 0.01 μg/ml; for activity at 0.1 µg/mL: 0.1 μg/ml; for activity at 1 µg/mL: 1 μg/ml
Description: as §2, §3

IMC cancer cells = test: Growth inhibitory effect on cultured IMC cancer cells; format: cell-based; settings: 48 hours, 37° C., read-out: concentration at which 50% of the original cells were inhibited from growth
Description: as §1

[4] = 5 mg/kg, 10 times on alternative days

NCCCCNCCCN [Spermidine, spermidine]
IC50 (L-1210 cells): 2.8 µg/mL (≈ 19.3 µM) | optimal concentration (interleukin-2 production) [1]: 0.1 µg/mL | activity at 0.001 µg/mL ([1]; with Con A (2 μg/ml)): 126% | activity at 0.001 µg/mL ([1]; without Con A): 171% | activity at 0.01 µg/mL ([1]; with Con A (2 μg/ml)): 130% | activity at 0.01 µg/mL ([1]; without Con A): 255% | activity at 0.1 µg/mL ([1]; with Con A (2 μg/ml)): 149% | activity at 0.1 µg/mL ([1]; without Con A): 281% | activity at 1 µg/mL ([1]; with Con A (2 μg/ml)): 135% | activity at 1 µg/mL ([1]; without Con A): 90% | Swelling on the sole ([2]; 10 μg/mouse i.p. once daily for 3 days): 8.0 ± 0.3 × 0.1 mm | % suppression ([2]; 10 μg/mouse): 42% | Swelling on the sole ([2]; 100 μg/mouse i.p. once daily for 3 days): 10.2 ± 0.4 × 0.1 mm | % suppression ([2]; 100 μg/mouse): 26% | Swelling on the sole ([2]; 1000 μg/mouse i.p. once daily for 3 days): 10.9 ± 0.8 × 0.1 mm | % suppression ([2]; 1000 μg/mouse): 21% | Survival rate on Day 60 (mouse leukemia L-1210; 0.5 mg/kg): 1/10 | Survival period (mouse leukemia L-1210; 0.5 mg/kg, 10 times on alternative days): 16.0 ± 3.1 days | Increase of life span (mouse leukemia L-1210; 0.5 mg/kg): 109% | Survival rate on Day 60 (mouse leukemia L-1210; 5 mg/kg): 3/10 | Survival period (mouse leukemia L-1210; [4]): 15.2 ± 2.2 days | complete remission (mouse leukemia L-1210; [4]): 3 out of 10 | Increase of life span (mouse leukemia L-1210; 5 mg/kg): 104% | Survival rate on Day 60 (IMC ascites tumor; spermidine (5 mg/kg) alone): 0/10 | Survival period (IMC ascites tumor; spermidine (5 mg/kg) alone, 10 times on alternative days): 20.1 ± 2.3 days | Increase of life span (IMC ascites tumor; spermidine (5 mg/kg) alone, control = 100): 114% | life span increase against the control group (IMC ascites tumor; spermidine alone): 14% | optimal concentration (interleukin-2 production) [3]: 0.1 µg/mL | activity at 0.001 µg/mL ([3]; with Con A (2 μg/ml)): 94% | activity at 0.001 µg/mL ([3]; without Con A): 137% | activity at 0.01 µg/mL ([3]; with Con A (2 μg/ml)): 153% | activity at 0.01 µg/mL ([3]; without Con A): 152% | activity at 0.1 µg/mL ([3]; with Con A (2 μg/ml)): 157% | activity at 0.1 µg/mL ([3]; without Con A): 166% | activity at 1 µg/mL ([3]; with Con A (2 μg/ml)): 152% | activity at 1 µg/mL ([3]; without Con A): 136% | IC50 (IMC cancer cells): 2.4 µg/mL (≈ 16.5 µM)
